The results in this text go back to patent US11540516B2, “M-diamide compound and preparation method therefor and use thereof” (priority 2018, dated 2023).

Where two headings read alike, the source gives them in different places.

What all share (format): in vivo
In one data set the test system is Mythimna separata. Put plainly: Indoor bioactivity test against Mythimna separata (leaf dip). Particulars: foliar, 3rd day after treatment. An excerpt: The leaf dip method was used to assay the insecticidal activity of compounds to strains of Mythimna sepatata. Cut above ground part of fresh maize seedlings, about 10 cm. Dip the maize seedlings into the solution prepared with compound of this invention for 10 seconds and dry them in a cool environment. Then cut the dry maize seedlings into 3˜5 cm leaf sections and put 3 leaf sections into each petri dish. Put ten of 4th-instar larvae of Mythimna separatas into each dish, which was repeated by 3 times. Then the dishes were placed in an illumination incubator and incubated at 25° C. in the dark. Symptoms were investigated on the 1st, 2nd and 3rd day after treatment, and the mortality was calculated.

The next data set deals with Plutella xylostella. Put plainly: Indoor bioactivity test against Plutella xylostella (leaf dip). Particulars: foliar; for mortality at 0.4 ppm / mortality at 1 ppm: 3rd day after treatment. Here is the method: (§1) The leaf dip method was used to assay the insecticidal activity of compounds to strains of Plutella xylostella. Dip the leaf disc into the solution prepared with compound of this invention for 10 seconds, and dry them in a cool environment. Then place them in Petri dish with 4 discs per dish. Put the filter paper into the Petri dish to moisturize it. Put 10 of Plutella xylostella into each dish, which was repeated by 3 times. The dishes were placed in an illumination incubator and incubated at 25° C. with 14 hL: 10 hD illumination. The number of Plutella xylostella death was investigated on the 1st, 2nd and 3rd day after treatment, and the mortality was calculated.
According to the above method, compound 4 and KC1 were selected and parallelly tested against Plutella xylostella to compare their insecticidal activity.

The subject of the next data set is Chilo suppressalis. Put plainly: Indoor bioactivity test against Chilo suppressalis (rice stem dip). Here is the method:
The leaf dip method was used to assay the insecticidal activity of compounds to strains of Chilo suppressalis. The rice was cultivated in a plastic pot with a diameter of 9 cm and a height of 10 cm. When the rice grew about 25 cm, the aerial part of robust and consistent rice seedlings were selectively cut. Their leaves were removed and their stems of about 8 cm were kept for use. Pour the solution prepared with compound of this invention into the Petri dish (about 40 mL) and immerse the rice stems into the solution for 10 seconds. Take rice stems out and dry them in a cool environment. Put a wet cotton ball at the bottom of finger-like glass tube and 5 rice stems in each tube. Put 10 of 3rd-instar larvae of Chilo suppressa into each tube, which was repeated by 3 times. Seal the tubes with black cotton cloth and tighten them with rubber band. The tubes were placed in a illumination incubator at 28° C. and incubated in the dark. The number of alive Chilo suppressalis and the total number were investigated 3 days after treatment. The mortality was calculated.
According to the above method, Compound 23 and KC2 were selected and parallelly tested against Chilo suppressalis.

The test system of data set [1] is Spodoptera exigua Hiibner. Put plainly: Indoor bioactivity test against Spodoptera exigua Hiibner (leaf dip). Particulars: foliar, 3rd day after treatment. Here is the method: as §1, with “strains of Spodoptera exigua Hiibner. Dip the” for “strains of Plutella xylostella. Dip the”, “10 of Spodoptera exigua Hiibners into each” for “10 of Plutella xylostella into each”, “number of Spodoptera exigua Hiibner death was” for “number of Plutella xylostella death was”

Another data set deals with Spodoptera litura. Put plainly: Indoor bioactivity test against Spodoptera litura (leaf dip). The settings on record: foliar. Here is the method:
as §1, with “Spodoptera litura.” for “Plutella xylostella.”, “Spodoptera litura” for “Plutella xylostella”
According to the above method, compound 4, 23 and KC1 were selected and parallelly tested against Spodoptera litura to compare the insecticidal activity.

Another data set deals with soybean thrips. The data set can be described thus: Biological activity on soybean thrips in greenhouse (foliar spray). Here is the method: Test system: naturally occurring thrips population on soybeans planted in greenhouse. The basic number of active thripses were more than 100 thripses per trifoliate leaf. Under the same conditions, the sensitivity of the thrips population to Spinetoram (dose: 50 mg/L) is 96.55% mortality on the 6th day after treatment.
The size of the plot: 10 m^2, no repetition.
Test formulation: each compound was made into 5% SL (compound 5%+emulsifier 5%+solvent to make up 100%).
(1) Spraying time: both adult and larva thripses were in the active period. The number of spray: 1 time.
(2) Standard for water usage: when dose was in mg/kg, the upper leaves were wet and water began to drop therefrom.
(3) Survey standard: count three single leaves as one leaf. Three leaves were randomly selected and investigated for the number of adult and larva thripses on them.
[…] 2 surveys were conducted.

Where [2] appears, read: 3rd day after treatment, read-out: mortality of Chilo suppressalis.
[3] abbreviates: 24 h, read-out: Mortality (%) 1 d.
Where [4] appears, read: 48 h, read-out: Mortality (%) 2 d.
Setting [5] is: 72 h, read-out: Mortality (%) 3 d.
The mark [6] stands for this setting: dose 50 ppm, 1 d, foliar spray, 5% SL.
Setting [7] is: dose 50 ppm, 6 d, foliar spray, 5% SL.

In the data set with Mythimna separata, `CC(C1CC1)N(C(=O)c1ccccc1)c1cccc(C(=O)Nc2c(Br)cc(C(F)(C(F)(F)F)C(F)(F)F)cc2C(F)(F)F)c1F` (stereo not shown) [Compound 8, N-(2-bromo-4-(perfluoropropan-2-yl)-6-(trifluoromethyl)phenyl)-3-(N-(1-cyclopropylethyl)benzamido)-2-fluorobenzamide] came in with a mortality at 1 ppm not below 90%. The compound further showed a mortality at 0.4 ppm in the data set on Plutella xylostella not below 90%.
The compound `O=C(Nc1c(Br)cc(C(F)(C(F)(F)F)C(F)(F)F)cc1C(F)(F)F)c1cccc(N(C(=O)c2ccccc2)C(C2CC2)C2CC2)c1F` [Compound 22, N-(2-bromo-4-(perfluoropropan-2-yl)-6-(trifluoromethyl)phenyl)-3-(N-(dicyclopropylmethyl)benzamido)-2-fluorobenzamide] registered a mortality at 1 ppm with Mythimna separata not below 90%.
For the compound `CC(C1CC1)N(C(=O)c1ccc(C#N)cc1)c1cccc(C(=O)Nc2c(Br)cc(C(F)(C(F)(F)F)C(F)(F)F)cc2C(F)(F)F)c1F` (stereo not shown) [Compound 26, N-(2-bromo-4-(perfluoropropan-2-yl)-6-(trifluoromethyl)phenyl)-3-(4-cyano-N-(1-cyclopropylethyl)benzamido)-2-fluorobenzamide], in the data set with Mythimna separata, the mortality at 1 ppm is not below 90%. In addition, in the data set with Plutella xylostella, the mortality at 0.4 ppm is not below 90%. In addition, the mortality at 5 ppm with Chilo suppressalis (setting [2]) is not below 90%.
`COC(c1cc(Br)c(NC(=O)c2cccc(N(CC3CC3)C(=O)c3ccc(C(F)(F)F)cc3)c2F)c(C(F)(F)F)c1)(C(F)(F)F)C(F)(F)F` [Compound 38, N-(2-bromo-4-(1,1,1,3,3,3-hexafluoro-2-methoxypropan-2-yl)-6-(trifluoromethyl)phenyl)-3-(N-(cyclopropylmethyl)-4-(trifluoromethyl)benzamido)-2-fluorobenzamide] showed a mortality at 1 ppm with Mythimna separata not below 90%.
Regarding `CC(C1CC1)N(C(=O)c1ccc(C(F)(F)F)cc1)c1cccc(C(=O)Nc2c(Br)cc(C(F)(C(F)(F)F)C(F)(F)F)cc2C(F)(F)F)c1F` (stereo not shown) [Compound 39, N-(2-bromo-4-(perfluoropropan-2-yl)-6-(trifluoromethyl)phenyl)-3-(N-(1-cyclopropylethyl)-4-(trifluoromethyl)benzamido)-2-fluorobenzamide], the mortality at 1 ppm in the data set with Mythimna separata and in the data set with Plutella xylostella was not below 90% throughout. The compound also returned a mortality at 10 ppm in the data set on Chilo suppressalis (3rd day after treatment) not below 90%.
`CC(C1CC1)N(C(=O)c1ccc(Cl)cc1)c1cccc(C(=O)Nc2c(Br)cc(C(F)(C(F)(F)F)C(F)(F)F)cc2C(F)(F)F)c1F` (stereo not shown) [Compound 44, N-(2-bromo-4-(perfluoropropan-2-yl)-6-(trifluoromethyl)phenyl)-3-(4-chloro-N-(1-cyclopropylethyl)benzamido)-2-fluorobenzamide]: the mortality at 1 ppm in the data set on Mythimna separata was not below 90%.
With `O=C(Nc1c(Br)cc(C(F)(C(F)(F)F)C(F)(F)F)cc1C(F)(F)F)c1cccc(N(CC2CC2)C(=O)c2ccc(Br)cc2)c1F` [Compound 46, N-(2-bromo-4-(perfluoropropan-2-yl)-6-(trifluoromethyl)phenyl)-3-(4-bromo-N-(cyclopropylmethyl)benzamido)-2-fluorobenzamide], the mortality at 1 ppm in data set [1] is 90%. For the same compound, the mortality at 5 ppm with Chilo suppressalis (setting [2]) was not below 90%.
For the compound `O=C(Nc1c(I)cc(C(F)(C(F)(F)F)C(F)(F)F)cc1C(F)(F)F)c1cccc(N(CC2CC2)C(=O)c2ccc(Br)cc2)c1F` [Compound 47, N-(2-iodo-4-(perfluoropropan-2-yl)-6-(trifluoromethyl)phenyl)-3-(4-bromo-N-(cyclopropylmethyl)benzamido)-2-fluorobenzamide], the mortality at 1 ppm was not below 90% in the data set on Mythimna separata and 90% in data set [1]. The mortality at 0.4 ppm with Spodoptera litura (0.4 ppm, 3rd day after treatment, read-out: mortality of Spodoptera litura) is not below 90%. In the data set on Chilo suppressalis (3rd day after treatment), this compound came in with a mortality at 10 ppm not below 90%.
On to `CC(C1CC1)N(C(=O)c1ccc(Br)cc1)c1cccc(C(=O)Nc2c(Br)cc(C(F)(C(F)(F)F)C(F)(F)F)cc2C(F)(F)F)c1F` (stereo not shown) [Compound 50, N-(2-bromo-4-(perfluoropropan-2-yl)-6-(trifluoromethyl)phenyl)-3-(4-bromo-N-(1-cyclopropylethyl)benzamido)-2-fluorobenzamide], for which the mortality at 10 ppm with Chilo suppressalis (3rd day after treatment) was not below 90%.
Regarding `O=C(Nc1c(Br)cc(C(F)(C(F)(F)F)C(F)(F)F)cc1C(F)(F)F)c1cccc(N(CC2CC2)C(=O)c2ccc(I)cc2)c1F` [Compound 52, N-(2-bromo-4-(perfluoropropan-2-yl)-6-(trifluoromethyl)phenyl)-3-(N-(cyclopropylmethyl)-4-iodobenzamido)-2-fluorobenzamide], the mortality at 1 ppm in the data set with Mythimna separata was not below 90%. Besides, the mortality at 10 ppm in the data set with Spodoptera litura (3rd day after treatment) and in the data set on Chilo suppressalis (3rd day after treatment) was not below 90% in each case.
For `O=C(Nc1c(I)cc(C(F)(C(F)(F)F)C(F)(F)F)cc1C(F)(F)F)c1cccc(N(CC2CC2)C(=O)c2ccc(I)cc2)c1F` [Compound 53, N-(2-iodo-4-(perfluoropropan-2-yl)-6-(trifluoromethyl)phenyl)-3-(N-(cyclopropylmethyl)-4-iodobenzamido)-2-fluorobenzamide], the mortality at 10 ppm (in data set [1] (10 ppm); in the data set with Spodoptera litura (3rd day after treatment); with Chilo suppressalis (3rd day after treatment)) was not below 90% each time.
Consider `CC(C1CC1)N(C(=O)c1ccc(F)cc1)c1cccc(C(=O)Nc2c(Br)cc(C(F)(C(F)(F)F)C(F)(F)F)cc2C(F)(F)F)c1F` (stereo not shown) [Compound 63, N-(2-bromo-4-(perfluoropropan-2-yl)-6-(trifluoromethyl)phenyl)-3-(N-(1-cyclopropylethyl)-4-fluorobenzamido)-2-fluorobenzamide], for which the mortality at 1 ppm in the data set on Plutella xylostella was not below 90%.
For `CN(C(=O)c1ccccc1)c1cccc(C(=O)Nc2c(Br)cc(C(F)(C(F)(F)F)C(F)(F)F)cc2C(F)(F)F)c1F` [KC1 (broflanilide), broflanilide, reference compound], the mortality at 0.04 ppm in the data set with Plutella xylostella (setting [3]) worked out at 0%; in the data set with Plutella xylostella (setting [4]), 56.7%; in the data set on Plutella xylostella (setting [5]), 90%. For the same compound, the mortality at 0.4 ppm in the data set with Spodoptera litura (setting [3]), with Spodoptera litura (setting [4]) and in the data set with Spodoptera litura (setting [5]) was 0% throughout. Besides, the mortality at 1 ppm in the data set with Spodoptera litura (setting [3]) is 26.7%; with Spodoptera litura (setting [4]), 33.3%; with Spodoptera litura (setting [5]) it was 33.3%.
For `CN(C(=O)c1ccc(C#N)cc1)c1cccc(C(=O)Nc2c(Br)cc(C(F)(C(F)(F)F)C(F)(F)F)cc2C(F)(F)F)c1F` [KC2, reference compound], the mortality at 0.4 ppm with Chilo suppressalis (72 h, 0.4 ppm, 3d) was determined as 0%. In the data set with Chilo suppressalis (72 h, 1 ppm, 3d), this compound showed a mortality at 1 ppm of 53.3%. In the data set on Chilo suppressalis (72 h, 2 ppm, 3d), this compound registered a mortality at 2 ppm of 86.7%. Besides, the mortality at 5 ppm in the data set with Chilo suppressalis (72 h, 3d, read-out: Mortality (%, 3d) 5 ppm) was 93.3%.
On to Spinetoram [reference compound], for which the “sensitivity of the thrips population, mortality” value with soybean thrips (dose 50 mg/L, 6th day after treatment) is 96.55%. In the data set on soybean thrips (setting [6]), the “Mortality % 1 d” value is on record as 93.94% and the “No. of thrips 1 d” value is reported as 16. For the same compound, in the data set on soybean thrips (setting [7]), the “Mortality % 6 d” value stood at 96.55% and the “No. of thrips 6 d” value is 4.
